Test results as given in US10421725B2, “Alkoxyamines for the treatment of cancers” (Centre National De La Recherche Scientifique, priority 2013, dated 2019).

Legend:
[1] = Monitoring of ALK-1 homolysis by Overhauser-enhanced MRI (OMRI); type: physicochemical
Source text: EPR Cavity and MRI devices. The OMRI experiment were done in a C-shaped 0.2 T MRI system (Magnetom Open Viva, Siemens, Erlangen, Germany) and a resonant TE011 transverse electric mode EPR cavity setup (Bruker, Wissembourg, France) as described previously. The EPR cavity, placed at the center of the magnet, was used to saturate the electron spin transition of the nitroxide SG1 produced upon ALK-1 homolysis. A homemade saddle-shaped MRI coil (28 mm in diameter and 29 mm in length) in the EPR cavity was used for imaging.
Electron spin saturation was carried out at 5.4573 GHz, corresponding to the first line at high field from the center of the EPR spectrum. The proton frequency was 8.24 MHz. Sample temperature was kept at 37° C.
OMRI experiments were performed in two NMR tubes (4 mm inner diameter): one containing 0.8 mM of SG1 nitroxide in phosphate buffer saline (not shown) and the other with 0.8 mM of ALK-1 in DMEM, 10% FCS. ALK-1 homolysis was followed for 48 hours.
Pulse sequences. […] All MR adjustments were done manually, using the same fixed receiver amplification gain for both measurements, without (Soff) and with (Son) HF irradiation, so that signals can be directly compared and Overhauser enhancements (Son/Soff) calculated.
Post-processing. […] Signal intensity was measured in a rectangular region of interest of 2 mm^2 positioned in the NMR tube area. […]

U87 cells [2] = assay: Oxidative stress (carboxy-H2DCFDA probe, flow cytometry); type: cell-based, Human; conditions: 3 mM, 1 h
Procedure: (§1) Cell culture: Human glioblastoma-astrocytoma cell line U87 MG from the American Type Culture Collection (reference ATCC-HTB-14) were cultured in Dulbecco's modified eagles medium (DMEM, Gibco Corp) supplemented with 10% fetal calf serum (FCS, Gibco Corp), in a humidified atmosphere with 5% CO2 at 37° C.
Oxidative stress: The cells were grown in a 24 multiwell plate as previously described. Then, cells were dissociated using 0.05% trypsin (Invitrogen, Carlsbad, Calif., USA) and suspended at a density of 1×10^6 cells/mL in carboxy-H2DCFDA (Molecular Probes, Invitrogen, Life Technologies) at 50 μM. After 30 minutes incubation at 37° C., cells were washed with phosphate buffered saline (PBS). Cells were centrifuged and resuspended with cell culture media containing or not 3 mM alkoxyamine with or without trihydroxyethylrutin at 20 or 50 mM. After incubation time the cells were washed and analyzed on a Guava easyCyte flow cytometer/counter.

U87 cells [3] = assay: Viability test (LIVE/DEAD kit, flow cytometry); type: cell-based, Human
Procedure: as §1
Viability Test: The viability study of U87 cells treated or not with the alkoxyamine was measured by the LIVE/DEAD® Viability/Cytotoxicity Kit (Molecular Probes, Invitrogen, Life Technologies). Briefly, the cells were allowed to grow during 24 h on 24 multiwell plates (Becton-Dickinson, 2 cm^2/well). They were then treated with the alkoxyamine at concentrations ranging from 0.1 to 3 mM and tested for viability at distinct observation times (1, 3, 6, 24 or 72 h). To do this the adherent cells were dissociated from the plate by trypsinization and pelleted by centrifugation. Then, the cells were resuspended at 10^6 cells/mL on calcein-am and ethidium homodimer-1 solution during 20 minutes at room temperature and analyzed on a Guava easyCyte flow cytometer/counter (Millipore). U87 cells viability was also measured after treatment with previously homolysed alkoxyamine. For these experiments, the alkoxyamine was incubated in the culture medium during 72 h at 6 mM without the cells. U87 cells were then treated with different concentrations of this homolysed alkoxyamine for 1 h and a viability test was performed as previously described. The viability test in the presence of the free radical scavenger was carried out with an alkoxyamine concentration of 3 mM and an incubation time of 1 h. U87 cells viability was measured versus increasing concentrations the radical scavenger, trihydroxyethylrutin (Santa Cruz Biotechnology, inc.) namely, 20, 50 or 100 mM.

U87 cells [4] = assay: Apoptosis detection through caspase-3/-7 assay; type: cell-based, Human
Procedure: as §1
Apoptosis detection through caspase-3/-7 assay. Quantitative assessment of apoptotic cells was also conducted by the detection of caspase activity using the Vybrant® FAM Caspase-3 and -7 Assay Kit (Molecular Probes, Invitrogen, Life Technologies). Briefly, cells were treated with the previously described ALK-1 concentrations during 3, 24 or 72 h. After the alkoxyamine treatment, the cells were dissociated from the support, washed and incubated 1 h at 37° C. in FLICA working solution. Then, the cells were washed and green fluorescence was measured by flow cytometry. These experiments were performed twice.

U87 cells [5] = assay: Mitochondrial alterations measurements (TMRE, NAO); type: cell-based, Human
Procedure: as §1
Mitochondrial alterations measurements. The red fluorescent dye tetramethylrhodamine ethyl ester (TMRE, Molecular Probes, Invitrogen, Life Technologies) was used to follow variations in mitochondrial membrane potential. This cationic probe accumulates in polarized mitochondria through the electrochemical gradient. Nonyl Acridine Orange (NAO, Molecular Probes, Invitrogen, Life Technologies) was then used as a complementary assay to assess the changes in mitochondrial morphology. Cells were plated on 24 multi-well plates (Becton-Dickinson, 2 cm^2/well) during 24 h and treated with a range of ALK-1 concentrations (0.1; 0.25; 0.375; 0.5; 0.75; 1.0 and 1.5 mM). After 3, 24 or 72 h, cells were resuspended in TMRE (250 nM) or NAO (500 nM) and incubated 30 minutes at 37° C., 5% CO2. Incubation with 0.5 mM of Carbonyl cyanide 3-chlorophenylhydrazone (CCCP, Sigma-Aldrich) was performed as positive control of the mitochondrial depolarization staining. Then, cells were washed and analyzed by flow cytometry. All the experiments were performed three times.

[6] = cited from earlier work
U87 cells [7] = assay: Cell death analysis by annexin V/propidium iodide staining; type: cell-based, Human
Procedure: as §1
Cell death analysis by annexin V/propidium iodide staining. Cell death was detected by annexin V-FITC (Molecular Probes, Invitrogen, Life Technologies) binding to exposed […] (PS) residues at the surface of cells. Cells were treated with ALK-1 at concentrations ranging from 0.1 to 1.5 mM at 37° C. and tested at distinct observation times (3, 24 or 72 h). After treatment, cells were re-suspended in staining buffer containing propidium iodide (PI, 2 μg/mL) and annexin V-FITC. Double-labeling was performed at room temperature for 15 min in darkness. Then, the percentage of viable (IP−/AV−), early apoptotic (IP−/AV+) and late apoptosis/necrotic cells (IP+/AV+) was quantified by flow cytometry. These experiments were performed twice.

Compound	Ea (homolysis activation energy) ([1]; afforded by the OMRI t1/2)	half-life at 0.8 mM ([1]; cell culture medium (DMEM, 10% FCS), 0.8 mM, culture cell medium, 37° C., OMRI, read-out: experimental t1/2 of homolysis)	oxidative stress (U87 cells [2])	cells saved by the free radical scavenger (U87 cells [3]; 3 mM alkoxyamine, 1 h, with free radical scavenger (trihydroxyethylrutin))	cells killed (U87 cells [3]; 3 mM, one hour)	cytotoxic effect (U87 cells [3]; 0.1 to 3 mM)	toxicity for U87 cells of previously homolysed alkoxyamine (U87 cells [3]; same concentration, previously homolysed (72 h in culture medium), 1 h treatment)	cells carrying activated caspases (U87 cells [4]; 3 h, 1.5 mM)	caspase positive cells (U87 cells [4]; 24 h, 1 mM)	caspase+ cells (U87 cells [4]; 72 h, 0.25 mM)	caspase positive cells (U87 cells [4]; 72 h, 0.5 mM)	NAO staining (U87 cells [5]; 24 h, ALK-1 concentrations greater than 0.5 mM)	concentration from which the mitochondrial potential drops (TMRE) (U87 cells [5]; all times of observation (3, 24, 72 h))	Ea (homolysis activation energy), value reported [6]	necrotic or apoptotic cells (PI+/AV+) (U87 cells [7]; 3 h, 1.5 mM)	necrotic or apoptotic cells (PI+/AV+) (U87 cells [7]; 24 h, 1 mM)	PI+/AV+ cells (U87 cells [7]; 72 h, 0.5 mM)	mitochondrial potential (TMRE) (U87 cells [5]; 0.5 mM CCCP positive control, all incubation times)	accessibility of the cardiolipins to NAO (U87 cells [5]; 0.5 mM CCCP, independently of incubation time)
CCOP(=O)(OCC)C(N(OC(C)c1cc[n+](C)cc1)C(C)(C)C)C(C)(C)C (stereo not shown) [ALK-1, N-methyl 4-(1-((tert-butyl(1-(diethoxyphosphoryl)-2,2-dimethylpropyl)amino)oxy)ethyl)pyridin-1-ium 4-methylbenzenesulfonate]	26.1 kcal/mol	~2.08 h	strong oxidative stress	80%	approximately 75%	dose-dependent cytotoxic effect	do not carry any toxicity	92%	88%	more than 40%	80%	increased	≥ 0.5 mM	25.3 kcal/mol	most cells were necrotic or apoptotic cells	94%	most cells were PI+/AV+		
N#CC(C#N)=NNc1cccc(Cl)c1 [CCCP, Carbonyl cyanide 3-chlorophenylhydrazone, reference compound]																		expected drop of the mitochondrial potential	either neutral or positive
